Laboratory results published in patent US7071383B2, “Chimeric genes and methods for increasing the lysine and threonine content of the seeds of plants” (E. I. du Pont de Nemours and Company, priority 1992, dated 2006).
“And” between values parts separate entries of the source, which are not always exact repeats. Equal values may be shown once.

Legend:
tobacco DHDPS = assay: DHDPS enzyme assay of plant extracts, sensitivity to lysine; type: biochemical
Procedure: The leaf extracts were assayed for DHDPS activity as described in Example 4.
To test this hypothesis, total protein extracts were prepared from mature seeds and assayed for DHDPS activity. Approximately 30-40 mg of seeds were put into a 1.5 mL disposable plastic microfuge tube and ground in 0.25 mL of 50 mM Tris-HCl, 50 mM NaCl, 1 mM EDTA (TNE). The grinding was done using a motorized grinder with disposable plastic shafts designed to fit into the microfuge tube. The resultant suspensions were centrifuged for 5 min at room temperature in a microfuge to remove particulates. Approximately 0.1 mL of aqueous supernatant was removed between the pelleted material and the upper oil phase. The seed extracts were assayed for DHDPS activity as described in Example 4.
To assay for expression of the chimeric genes in leaves of the transformed plants, protein was extracted as described in Example 7 for AKIII, and as described in Example 9 for DHDPS. The leaf extracts were assayed for DHDPS activity as described in Examples 4 and 9. […] Extracts were characterized immunologically for expression of AKIII and DHDPS proteins via Western blots as described in Examples 7 and 10.

DE126 = assay: Growth inhibition by L-lysine in synthetic medium; type: cell-based, E. coli
Procedure: (4) This step involves production of a male derivative of strain DE125. Strain DE125 was mated with the male strain AB1528 [F′16/delta(gpt-proA)62, lacY1 or lacZ4, glnV44, galK2 rac^−(?), hisG4, rfbd1, mgl-51, kdgK51(?), ilvC7, argE3, thi-1] (E. coli Genetic Stock Center #1528) by the method of conjugation. F′16 carries the ilvGMEDAYC gene cluster. The two strains were cross streaked on rich medium permissive for the growth of each strain. After incubation, the plate was replica plated to a synthetic medium containing tetracycline, arginine, vitamin B1 and glucose. DE125 cannot grow on this medium because it cannot synthesize isoleucine. Growth of AB1528 is prevented by the inclusion of the antibiotic tetracycline and the omission of proline and histidine from the synthetic medium. A patch of cells grew on this selective medium. These recombinant cells underwent single colony isolation on the same medium. The phenotype of one clone was determined to be Ilv^+, Arg^−, TetR, Lysine-sensitive, male specific phage (MS2)-sensitive, consistent with the simple transfer of F′16 from AB1528 to DE125. This clone was designated DE126 and has the genotype F′16/malE52::Tn10, arg^−, ilvA296, thrA1101, metL100, lysC^+, λ^−, rpsL9, malT1, xyl-7, mtl-2, thi-1?, supE44?. It is inhibited by 20 μg/mL of L-lysine in a synthetic medium.

[1] = tested on: Gif106M1 transformed with pBT436; assay: Growth inhibition by lysine in M9 media; type: cell-based, E. coli
Procedure: Addition of lysine (or diaminopimelate which is readily converted to lysine in vivo) at a concentration of approximately 0.2 mM to the growth medium inhibits the growth of Gif106M1 transformed with pBT436. M9 media [see Sambrook et al. (1989) Molecular Cloning, A Laboratory Manual, Cold Spring Harbor Laboratory Press] supplemented with the arginine and isoleucine, required for Gif106M1 growth, and ampicillin, to maintain selection for the pBT436 plasmid, was used. This inhibition is reversed by addition of threonine plus methionine to the growth media. […] This property of pBT436-transformed Gif106M1 was used to select for mutations in lysC that encoded lysine-insensitive AKIII.

E. coli DHDPS = target: T1, E. coli DHDPS (Escherichia coli, UniProt P0A6L2, F2V); assay: biochemical; type: biochemical
T1 construct: the chloroplast targeting signal fused to the entire ecodapA coding region; expressed in transfected cells; host or cells: transgenic tobacco plants, leaf extracts (35S promoter) or mature seed extracts (phaseolin promoter)
Procedure: (§1) DHDPS enzyme activity was assayed as follows: Assay mix (for 10×1.0 mL assay tubes or 40×0.25 mL for microtiter dish); made fresh, just before use:
(§2) Color allowed to develop for 30-60 min. Precipitate spun down in eppendorf centrifuge. OD540 vs 0 min read as blank. For MicroAssay, aliquot 0.2 mL into microtiter well and read at OD530.
For Corynebacterium DHDPS, the activity was measured in the supernatant fraction of uninduced extracts, rather than induced extracts.

Corynebacterium DHDPS = target: T2, Corynebacterium DHDPS (Corynebacterium glutamicum, UniProt P19808); assay: DHDPS enzyme assay, sensitivity to L-lysine; type: biochemical; conditions: 70 mM L-lysine
T2 construct: made in house; host or cells: E. coli BL21(DE3), supernatant of uninduced extract
Procedure: as §1, §2
E. coli DHDPS was sensitive to the presence of L-lysine in the assay. Fifty percent inhibition was found at a concentration of about 0.5 mM. For Corynebacterium DHDPS, the activity was measured in the supernatant fraction of uninduced extracts, rather than induced extracts. Enzyme activity was about 4 OD530 units per min per milligram protein in a 0.25 mL assay.

AKIII-M3 = target: T3, AKIII-M3 (Escherichia coli, UniProt P08660, G401A/T352I); assay: AK enzyme assay, sensitivity to L-lysine; type: biochemical, E. coli; conditions: 15 mM L-lysine
T3 construct: made in house; host or cells: E. coli BL21(DE3), crude extract
Procedure: (§3) AK activity was assayed as shown below:
(§4) Assay mix (for 12 assay tubes): • 4.5 mL H2O • 1.0 mL 8M KOH • 1.0 mL 8M NH2OH-HCl • 1.0 mL IM Tris-HCl pH 8.0 • 0.5 mL 0.2M ATP (121 mg/mL in 0.2M NaOH) • 50 μL 1M MgSO4
(§5) Each 1.5 mL eppendorf assay tube contained: • 0.64 mL assay mix • 0.04 mL 0.2 M L-aspartic acid or 0.04 mL H2O • 0.0005-0.12 mL extract • H2O to total volume 0.8 mL
(§6) Assay tubes were incubated at 30° C. for desired time (10-60 min). Then 0.4 mL FeCl3 reagent (10% w/v FeCl3, 3.3% trichloroacetic acid, 0.7 M HCl) was added and the material centrifuged for 2 min in an eppendorf centrifuge. The supernatant was decanted. The OD was read at 540 nm and compared to the aspartyl-hydroxamate standard.
(§7) Approximately 80% of the AKIII activity was in the supernatant fraction. The specific activity of wild type and mutant crude extracts was 5-7 μM product per min per milligram total protein. Wild type AKIII was sensitive to the presence of L-lysine in the assay.

AKIII-M2 = target: T4, AKIII-M2 (Escherichia coli, UniProt P08660, G401A/M318I); assay: AK enzyme assay, sensitivity to L-lysine; type: biochemical, E. coli; conditions: 15 mM L-lysine
T4 construct: made in house; host or cells: E. coli BL21(DE3), crude extract
Procedure: as §3, §4, §5, §6, §7

AKIII-M4 = target: T5, AKIII-M4 (Escherichia coli, UniProt P08660, G401A/T352I); assay: AK enzyme assay, sensitivity to L-lysine; type: biochemical, E. coli; conditions: 15 mM L-lysine
T5 construct: made in house; host or cells: E. coli BL21(DE3), crude extract
Procedure: as §3, §4, §5, §6, §7

Wild type AKIII = target: T6, Wild type AKIII (Escherichia coli, UniProt P08660, G401A); assay: AK enzyme assay, sensitivity to L-lysine; type: biochemical, E. coli
T6 construct: the coding region of the wild type E. coli lysC gene, which encodes AKIII; made in house; host or cells: E. coli BL21(DE3), supernatant of crude extract
Procedure: as §3, §4, §5, §6, §7

T1 sequence (P0A6L2 whole entry F2V, the tested form may be a part): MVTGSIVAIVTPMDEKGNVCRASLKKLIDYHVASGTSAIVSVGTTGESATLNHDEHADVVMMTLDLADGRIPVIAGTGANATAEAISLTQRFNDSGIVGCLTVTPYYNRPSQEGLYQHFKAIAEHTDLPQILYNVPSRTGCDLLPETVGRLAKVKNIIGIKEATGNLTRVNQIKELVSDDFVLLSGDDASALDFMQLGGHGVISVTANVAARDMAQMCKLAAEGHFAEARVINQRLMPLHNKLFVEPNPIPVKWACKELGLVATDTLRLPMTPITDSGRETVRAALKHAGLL
T6 sequence (P08660 other isoform, or with tags, fused parts or gaps G401A): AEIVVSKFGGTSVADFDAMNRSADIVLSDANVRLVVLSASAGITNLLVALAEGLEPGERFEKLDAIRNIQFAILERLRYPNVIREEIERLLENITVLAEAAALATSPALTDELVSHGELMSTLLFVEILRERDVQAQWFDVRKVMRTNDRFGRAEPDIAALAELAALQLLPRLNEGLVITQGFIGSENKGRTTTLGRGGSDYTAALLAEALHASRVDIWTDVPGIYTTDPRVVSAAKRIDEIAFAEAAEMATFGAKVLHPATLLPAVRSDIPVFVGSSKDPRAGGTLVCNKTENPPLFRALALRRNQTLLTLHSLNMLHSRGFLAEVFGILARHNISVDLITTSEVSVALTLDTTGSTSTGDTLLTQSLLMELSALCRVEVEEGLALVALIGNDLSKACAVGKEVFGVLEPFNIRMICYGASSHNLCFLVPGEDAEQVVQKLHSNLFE
T3 sequence (P08660 other isoform, or with tags, fused parts or gaps T352I/G401A): as the sequence (P08660 other isoform, or with tags, fused parts or gaps G401A) above, with T351I counted along it
T5 sequence (P08660 other isoform, or with tags, fused parts or gaps T352I/G401A): as the sequence (P08660 other isoform, or with tags, fused parts or gaps G401A) above, with T351I counted along it
T2 sequence (P19808 other isoform, or with tags, fused parts or gaps): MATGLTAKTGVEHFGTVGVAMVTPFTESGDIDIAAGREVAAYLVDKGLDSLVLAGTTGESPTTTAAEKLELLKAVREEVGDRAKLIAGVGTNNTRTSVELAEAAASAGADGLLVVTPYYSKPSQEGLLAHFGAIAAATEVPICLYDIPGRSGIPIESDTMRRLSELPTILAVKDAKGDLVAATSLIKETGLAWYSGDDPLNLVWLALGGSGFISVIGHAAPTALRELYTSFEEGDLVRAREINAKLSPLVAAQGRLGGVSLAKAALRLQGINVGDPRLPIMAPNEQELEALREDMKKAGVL
T4 sequence (P08660 other isoform, or with tags, fused parts or gaps M318I/G401A): as the sequence (P08660 other isoform, or with tags, fused parts or gaps G401A) above, with M317I counted along it

## NCCCC[C@H](N)C(=O)O [L-lysine]
Tobacco DHDPS; 0.1 mM lysine, leaf extracts
  inhibition by lysine: completely inhibited
Tobacco DHDPS; 0.4 mM lysine, seed extracts
  inhibition by lysine: completely inhibited
DE126
  concentration that inhibits growth: 20 µg/mL
[1]
  concentration in growth medium that inhibits growth: approximately 0.2 mM
E. coli DHDPS
  IC50: ~500 µM
E. coli DHDPS; 0.1 mM lysine, leaf extracts
  activity retained: 80-90%
E. coli DHDPS; 0.4 mM lysine, seed extracts
  activity retained: about 50%
E. coli DHDPS; vs wheat germ DHDPS
  fold less sensitive to inhibition by lysine than a typical plant DHDPS: about 20 fold
Corynebacterium DHDPS
  inhibition by L-lysine: not inhibited at all
AKIII-M3
  inhibition by L-lysine: not inhibited at all
AKIII-M2
  inhibition by L-lysine: not inhibited at all
AKIII-M4
  inhibition by L-lysine: not inhibited at all
Wild type AKIII; 1 mM lysine
  inhibition of wild type AKIII: > 90%
Wild type AKIII; L-lysine concentration for fifty percent inhibition of AKIII, crude extract
  IC50: ~400 µM and 300 to 400 µM
